US20060127315A1, “Methods of treating humans undergoing injection of a contrast agent” (SHIVA BIOMEDICAL, L.L.C., priority 2004, published 2006)

Assay: Pharmacokinetics of deferiprone, single oral dose crossover study in subjects with mild renal insufficiency
Type: in vivo, human
Details: patients with mild to moderate renal insufficiency
Experimental: Blood samples were collected immediately prior to and for a period of 48 hours after each dose and the concentrations of deferiprone determined.

Cc1c(O)c(=O)ccn1C [deferiprone, 1,2-dimethyl-3-hydroxy-pyrid-4-one]
pharmacokinetic profile compared with patients with normal renal function: very similar to that reported with patients with normal renal function
